Target: human P2X7 (Homo sapiens (Human), UniProt Q99572)
Experiment: P2X7 antagonism in human PBMCs (IL-1β release after LPS + Bz-ATP, ELISA)
Type: cell-based
Conditions: human PBMCs, test compound 10 μM

human P2X7, sequence (Q99572 whole entry): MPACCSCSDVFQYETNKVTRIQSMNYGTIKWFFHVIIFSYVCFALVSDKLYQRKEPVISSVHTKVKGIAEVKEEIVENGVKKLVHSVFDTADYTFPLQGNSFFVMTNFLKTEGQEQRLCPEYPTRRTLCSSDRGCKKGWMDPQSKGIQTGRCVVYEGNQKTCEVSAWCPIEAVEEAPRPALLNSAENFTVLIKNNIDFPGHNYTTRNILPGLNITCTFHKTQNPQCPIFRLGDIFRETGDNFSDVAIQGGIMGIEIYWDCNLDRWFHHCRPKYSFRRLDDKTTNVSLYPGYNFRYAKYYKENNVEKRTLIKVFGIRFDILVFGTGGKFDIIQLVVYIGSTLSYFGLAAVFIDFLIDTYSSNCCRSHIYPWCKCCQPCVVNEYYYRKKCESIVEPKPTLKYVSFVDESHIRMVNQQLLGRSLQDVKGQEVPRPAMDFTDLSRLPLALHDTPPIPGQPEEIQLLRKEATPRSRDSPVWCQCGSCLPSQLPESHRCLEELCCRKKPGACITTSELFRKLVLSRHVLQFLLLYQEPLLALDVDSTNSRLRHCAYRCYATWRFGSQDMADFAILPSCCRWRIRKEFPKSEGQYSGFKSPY

| SMILES | PBMC 10 μM (% control) |
| --- | --- |
| CC1c2nnn(-c3ncc(F)cn3)c2CCN1C(=O)c1cccc(Cl)c1Cl (stereo not drawn) [Example 174, (2,3-Dichlorophenyl)(1-(5-fluoropyrimidin-2-yl)-4-methyl-6,7-dihydro-1H-[1,2,3]triazolo[4,5-c]pyridin-5(4H)-yl)methanone] | 4.2 |
| CC1c2nnn(-c3ncc(F)cn3)c2CCN1C(=O)c1cccc(C(F)(F)F)c1F (stereo not drawn) [Example 175, (2-fluoro-3-(trifluoromethyl)phenyl)(1-(5-fluoropyrimidin-2-yl)-4-methyl-6,7-dihydro-1H-[1,2,3]triazolo[4,5-c]pyridin-5(4H)-yl)methanone] | 4.5 |
| CC1Cc2c(nnn2-c2cc(F)ccn2)CN1C(=O)c1cccc(C(F)(F)F)c1Cl (stereo not drawn) [Example 176, (2-Chloro-3-(trifluoromethyl)phenyl)(1-(4-fluoropyridin-2-yl)-6-methyl-6,7-dihydro-1H-[1,2,3]triazolo[4,5-c]pyridin-5(4H)-yl)methanone] | 7.3 |
| CC1c2nnn(-c3cncnc3)c2CCN1C(=O)c1cccc(C(F)(F)F)c1Cl (stereo not drawn) [Example 177, (2-Chloro-3-(trifluoromethyl)phenyl)(4-methyl-1-(pyrimidin-5-yl)-6,7-dihydro-1H-[1,2,3]triazolo[4,5-c]pyridin-5(4H)-yl)methanone] | 8.6 |
| Cc1cc(C)nc(-n2nnc3c2CCN(C(=O)c2cccc(Cl)c2Cl)C3C)n1 (stereo not drawn) [Example 179, (2,3-dichlorophenyl)(1-(4,6-dimethylpyrimidin-2-yl)-4-methyl-6,7-dihydro-1H-[1,2,3]triazolo[4,5-c]pyridin-5(4H)-yl)methanone] | −4.3 |
| Cc1cncc(-n2nnc3c2CCN(C(=O)c2cccc(Cl)c2Cl)C3C)n1 (stereo not drawn) [Example 180, (2,3-dichlorophenyl)(4-methyl-1-(6-methylpyrazin-2-yl)-6,7-dihydro-1H-[1,2,3]triazolo[4,5-c]pyridin-5(4H)-yl)methanone] | −3.7 |
| CCc1nc2c(n1-c1ccccc1)CCN(C(=O)c1cccc(C(F)(F)F)c1Cl)C2C (stereo not drawn) [Example 184, (2-Chloro-3-(trifluoromethyl)phenyl)(2-ethyl-4-methyl-1-phenyl-6,7-dihydro-1H-imidazo[4,5-c]pyridin-5(4H)-yl)methanone] | −0.7 |
| CC1Cc2c(nnn2-c2ccn[nH]2)CN1C(=O)c1cccc(C(F)(F)F)c1F (stereo not drawn) [Example 189, (2-fluoro-3-(trifluoromethyl)phenyl)(6-methyl-1-(1H-pyrazol-3-yl)-6,7-dihydro-1H-[1,2,3]triazolo[4,5-c]pyridin-5(4H)-yl)methanone] | 0.5 |
| CC1Cc2c(nnn2-c2ncc(F)cn2)CN1C(=O)c1cccc(C(F)(F)F)c1Cl (stereo not drawn) [Example 200, 5-{[2-Chloro-3-(trifluoromethyl)phenyl]carbonyl}-1-(5-fluoropyrimidin-2-yl)-6-methyl-4,5,6,7-tetrahydro-1H-[1,2,3]triazolo[4,5-c]pyridine] | 3.2 |
| CC1Cc2c(nnn2-c2ncc(F)cn2)CN1C(=O)c1cccc(Cl)c1Cl (stereo not drawn) [Example 203, 5-[(2,3-Dichlorophenyl)carbonyl]-1-(5-fluoropyrimidin-2-yl)-6-methyl-4,5,6,7-tetrahydro-1H-[1,2,3]triazolo[4,5-c]pyridine] | 0.6 |
| Cc1c(C(=O)N2Cc3nnn(-c4ncc(F)cn4)c3CC2C)cccc1C(F)(F)F (stereo not drawn) [Example 206, 1-(5-Fluoropyrimidin-2-yl)-6-methyl-5-{[2-methyl-3-(trifluoromethyl)phenyl]carbonyl}-4,5,6,7-tetrahydro-1H-[1,2,3]triazolo[4,5-c]pyridine] | −1.0 |
| CC1Cc2c(nnn2-c2cnccn2)CN1C(=O)c1cccc(C(F)(F)F)c1Cl (stereo not drawn) [Example 209, 5-{[2-Chloro-3-(trifluoromethyl)phenyl]carbonyl}-6-methyl-1-pyrazin-2-yl-4,5,6,7-tetrahydro-1H-[1,2,3]triazolo[4,5-c]pyridine] | −1.0 |
| CC1Cc2c(nnn2-c2cc[nH]n2)CN1C(=O)c1cccc(C(F)(F)F)c1Cl (stereo not drawn) [Example 210, (2-chloro-3-(trifluoromethyl)phenyl)(6-methyl-1-(1H-pyrazol-3-yl)-6,7-dihydro-1H-[1,2,3]triazolo[4,5-c]pyridin-5(4H)-yl)methanone] | 0.8 |
| CC1Cc2c(nnn2-c2ncc(F)cn2)CN1C(=O)c1ccc(F)c(Cl)c1Cl (stereo not drawn) [Example 213, 5-[(2,3-Dichloro-4-fluorophenyl)carbonyl]-1-(5-fluoropyrimidin-2-yl)-6-methyl-4,5,6,7-tetrahydro-1H-[1,2,3]triazolo[4,5-c]pyridine] | 0.3 |
| CC1Cc2c(nnn2-c2ncc(F)cn2)CN1C(=O)c1ccc(Cl)c(F)c1Cl (stereo not drawn) [Example 216, 5-[(2,4-Dichloro-3-fluorophenyl)carbonyl]-1-(5-fluoropyrimidin-2-yl)-6-methyl-4,5,6,7-tetrahydro-1H-[1,2,3]triazolo[4,5-c]pyridine] | 0.6 |
| Cc1nc(-n2nnc3c2CCN(C(=O)c2cccc(C(F)(F)F)c2Cl)C3C)ncc1F (stereo not drawn) [Example 230, (2-chloro-3-(trifluoromethyl)phenyl)(1-(5-fluoro-4-methylpyrimidin-2-yl)-4-methyl-6,7-dihydro-1H-[1,2,3]triazolo[4,5-c]pyridin-5(4H)-yl)methanone] | 2.9 |

Other lines, results leading:

| PBMC 10 μM (% control) | SMILES |
| --- | --- |
| −1.0 | Cc1ccnc(-n2nnc3c2CCN(C(=O)c2cccc(Cl)c2Cl)C3C)n1 (stereo not drawn) [Example 225, (2,3-dichlorophenyl)(4-methyl-1-(4-methylpyrimidin-2-yl)-6,7-dihydro-1H-[1,2,3]triazolo[4,5-c]pyridin-5(4H)-yl)methanone] |
| −1.1 | C[C@H]1Cc2c(nnn2-c2ncc(F)cn2)CN1C(=O)c1ccnc(C(F)(F)F)c1F [Example 228, (S)-(3-fluoro-2-(trifluoromethyl)pyridin-4-yl)(1-(5-fluoropyrimidin-2-yl)-6-methyl-6,7-dihydro-1H-[1,2,3]triazolo[4,5-c]pyridin-5(4H)-yl)methanone] |
| −4.8 | Cc1cc(C)nc(-n2nnc3c2CCN(C(=O)c2cccc(Cl)c2Cl)C3C)c1 (stereo not drawn) [Example 231, (2,3-dichlorophenyl)(1-(4,6-dimethylpyridin-2-yl)-4-methyl-6,7-dihydro-1H-[1,2,3]triazolo[4,5-c]pyridin-5(4H)-yl)methanone] |
| −0.1 | Cc1cccc(-n2nnc3c2CCN(C(=O)c2cccc(Cl)c2Cl)C3C)n1 (stereo not drawn) [Example 233, (2,3-dichlorophenyl)(4-methyl-1-(6-methylpyridin-2-yl)-6,7-dihydro-1H-[1,2,3]triazolo[4,5-c]pyridin-5(4H)-yl)methanone] |
| 9.3 | CC1c2nnn(-c3cncnc3)c2C=CN1C(=O)c1cccc(C(F)(F)F)c1Cl (stereo not drawn) [Example 236, (2-Chloro-3-(trifluoromethyl)phenyl)(4-methyl-1-(pyrimidin-5-yl)-1H-[1,2,3]triazolo[4,5-c]pyridin-5(4H)-yl)methanone] |
| −5.1 | Cc1ccnc(-n2nnc3c2CCN(C(=O)c2cccc(Cl)c2Cl)C3C)c1 (stereo not drawn) [Example 237, (2,3-dichlorophenyl)(4-methyl-1-(4-methylpyridin-2-yl)-6,7-dihydro-1H-[1,2,3]triazolo[4,5-c]pyridin-5(4H)-yl)methanone] |
| −4.1 | CC1CN(C(=O)c2cccc(C(F)(F)F)c2Cl)C(C)c2nnn(-c3ccc(F)cc3)c21 (stereo not drawn) [Example 238, (2-Chloro-3-(trifluoromethyl)phenyl)(1-(4-fluorophenyl)-4,7-dimethyl-6,7-dihydro-1H-[1,2,3]triazolo[4,5-c]pyridin-5(4H)-yl)methanone] |
| −8.9 | CC1Cc2c(nnn2-c2ccccc2)C(C)N1C(=O)c1cccc(C(F)(F)F)c1Cl (stereo not drawn) [Example 240, (2-Chloro-3-(trifluoromethyl)phenyl)(4,6-dimethyl-1-phenyl-6,7-dihydro-1H-[1,2,3]triazolo[4,5-c]pyridin-5(4H)-yl)methanone] |
| 6.5 | CC1CN(C(=O)c2cccc(C(F)(F)F)c2Cl)C(C)c2nnn(-c3ccccc3)c21 (stereo not drawn) [Example 241, (2-Chloro-3-(trifluoromethyl)phenyl)(4,7-dimethyl-1-phenyl-6,7-dihydro-1H-[1,2,3]triazolo[4,5-c]pyridin-5(4H)-yl)methanone] |
| −3.4 | CC1Cc2c(nnn2-c2ccc(F)cc2)C(C)N1C(=O)c1cccc(Cl)c1Cl (stereo not drawn) [Example 242, (2,3-Dichlorophenyl)(1-(4-fluorophenyl)-4,6-dimethyl-6,7-dihydro-1H-[1,2,3]triazolo[4,5-c]pyridin-5(4H)-yl)methanone] |
| 1.0 | CC1Cc2c(nnn2-c2ccc(F)cc2)C(C)N1C(=O)c1cccc(C(F)(F)F)c1Cl (stereo not drawn) [Example 243, (2-Chloro-3-(trifluoromethyl)phenyl)(1-(4-fluorophenyl)-4,6-dimethyl-6,7-dihydro-1H-[1,2,3]triazolo[4,5-c]pyridin-5(4H)-yl)methanone] |
| −2.3 | CC1CN(C(=O)c2cccc(Cl)c2Cl)Cc2nnn(-c3ccccc3)c21 (stereo not drawn) [Example 244, (2,3-Dichlorophenyl)(7-methyl-1-phenyl-6,7-dihydro-1H-[1,2,3]triazolo[4,5-c]pyridin-5(4H)-yl)methanone] |
| −7.3 | CC1CN(C(=O)c2cccc(C(F)(F)F)c2Cl)Cc2nnn(-c3ccccc3)c21 (stereo not drawn) [Example 245, (2-Chloro-3-(trifluoromethyl)phenyl)(7-methyl-1-phenyl-6,7-dihydro-1H-[1,2,3]triazolo[4,5-c]pyridin-5(4H)-yl)methanone] |
| −3.1 | CC1CN(C(=O)c2cccc(C(F)(F)F)c2Cl)Cc2nnn(-c3ccc(F)cc3)c21 (stereo not drawn) [Example 246, (2-Chloro-3-(trifluoromethyl)phenyl)(1-(4-fluorophenyl)-7-methyl-6,7-dihydro-1H-[1,2,3]triazolo[4,5-c]pyridin-5(4H)-yl)methanone] |
